Among the data in PubChem BioAssay AID248 (DTP/NCI, 2004) are T/C values, retold here.

The test system of the assay is L1210 leukemia ip in BDF1 mice, survival T/C. Nature of the assay: NCI In Vivo Anticancer Drug Screen. Data for tumor model L1210 Leukemia (intraperitoneal) in B6D2F1 (BDF1) mice. The note with it: endpoint: mean survival time, higher = longer survival. In outline: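 Transplantable tumor model; survival measured in treated vs vehicle control mice. Value = treated/control.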

The mark [1] stands for this setting: dose: 100.0 mg/kg/injection, schedule: Q04DX002 (ip), vehicle: Klucel (hydroxypropylcellulose) (HPC).
[2] abbreviates: dose: 200.0 mg/kg/injection, schedule: Q04DX002 (ip), vehicle: Klucel (hydroxypropylcellulose) (HPC).
Where [3] appears, read: dose: 100.0 mg/kg/injection, schedule: Q01DX009 (ip), vehicle: saline with Tween-80.
Setting [4] is: dose: 100.0 mg/kg/injection, schedule: Q04DX003 (ip), vehicle: saline with Tween-80.
The mark [5] stands for this setting: dose: 200.0 mg/kg/injection, schedule: Q01DX009 (ip), vehicle: saline with Tween-80.
The mark [6] stands for this setting: dose: 200.0 mg/kg/injection, schedule: Q04DX003 (ip), vehicle: saline with Tween-80.
[7] abbreviates: dose: 400.0 mg/kg/injection, schedule: Q01DX009 (ip), vehicle: saline with Tween-80.
The mark [8] stands for this setting: dose: 400.0 mg/kg/injection, schedule: Q04DX003 (ip), vehicle: saline with Tween-80.
Where [9] appears, read: dose: 100.0 mg/kg/injection, schedule: Q01DX001 (ip), vehicle: carboxymethylcellulose (CMC).
Setting [10] is: dose: 200.0 mg/kg/injection, schedule: Q01DX001 (ip), vehicle: carboxymethylcellulose (CMC).
Setting [11] is: dose: 400.0 mg/kg/injection, schedule: Q01DX001 (ip), vehicle: carboxymethylcellulose (CMC).
[12] abbreviates: dose: 100.0 mg/kg/injection, schedule: Q01DX009 (ip), vehicle: saline.
The mark [13] stands for this setting: dose: 100.0 mg/kg/injection, schedule: Q04DX003 (ip), vehicle: saline.
[14] abbreviates: dose: 200.0 mg/kg/injection, schedule: Q01DX009 (ip), vehicle: saline.
Setting [15] is: dose: 400.0 mg/kg/injection, schedule: Q01DX009 (ip), vehicle: saline.
Where [16] appears, read: dose: 50.0 mg/kg/injection, schedule: Q01DX001 (ip), vehicle: saline.
[17] abbreviates: dose: 100.0 mg/kg/injection, schedule: Q01DX001 (ip), vehicle: saline.
The mark [18] stands for this setting: dose: 200.0 mg/kg/injection, schedule: Q01DX001 (ip), vehicle: saline.
Where [19] appears, read: dose: 400.0 mg/kg/injection, schedule: Q01DX001 (ip), vehicle: saline.
[20] abbreviates: dose: 100.0 mg/kg/injection, schedule: Q01DX009 (ip), vehicle: Klucel (hydroxypropylcellulose) (HPC).
Where [21] appears, read: dose: 200.0 mg/kg/injection, schedule: Q01DX009 (ip), vehicle: Klucel (hydroxypropylcellulose) (HPC).
The mark [22] stands for this setting: dose: 400.0 mg/kg/injection, schedule: Q01DX009 (ip), vehicle: Klucel (hydroxypropylcellulose) (HPC).
[23] abbreviates: dose: 6.25 mg/kg/injection, schedule: Q01DX009 (ip), vehicle: saline with Tween-80.
Where [24] appears, read: dose: 12.5 mg/kg/injection, schedule: Q01DX009 (ip), vehicle: saline with Tween-80.
[25] abbreviates: dose: 50.0 mg/kg/injection, schedule: Q01DX009 (ip), vehicle: saline with Tween-80.

Several values for one entry are separate records, joined by “and”; a condition that tells them apart may be missing. Equal values may be shown once. Toxic doses and inconclusive results are not listed.

In the case of `CC(=O)NC1C(OCC(NC(=O)OCc2ccccc2)C(=O)NC(CC(=O)OCc2ccccc2)C(=O)OCc2ccccc2)OC(COC(C)=O)C(OC(C)=O)C1OC(C)=O` (configuration not stated), the T/C is 97 % of control (dose: 50.0 mg/kg/injection, schedule: Q04DX002 (ip), vehicle: Klucel (hydroxypropylcellulose) (HPC)); 97 % of control under setting [1]; 87 % of control under setting [2].

On to `O=C(Nc1cccc2c1N(C(=O)c1ccco1)CCC2)c1ccco1`, for which the T/C is 98 % of control under setting [3]; 94 % of control under setting [4]; 101 % of control under setting [5]; 96 % of control under setting [6]; 95 % of control under setting [7]; 96 % of control under setting [8].

As for `O=[N+]([O-])c1ccc(N2CCCCC2)nc1`, the T/C runs as follows: (dose: 50.0 mg/kg/injection, schedule: Q01DX001 (ip), vehicle: carboxymethylcellulose (CMC)) 115 % of control; under setting [9], 91 % of control; under setting [10], 115 % of control; under setting [11], 97 % of control.

Turning to `O=C(N1C(c2ccc(Cl)cc2)CC2(CC1c1ccc(Cl)cc1)SSC1(CC(c3ccc(Cl)cc3)N(C(=O)C(F)(F)F)C(c3ccc(Cl)cc3)C1)S2)C(F)(F)F` (configuration not stated), the T/C by setting is: under setting [12], 102 % of control; under setting [13], 95 % of control; under setting [14], 98 % of control; (dose: 200.0 mg/kg/injection, schedule: Q04DX003 (ip), vehicle: saline) 97 % of control; under setting [15], 105 % of control; (dose: 400.0 mg/kg/injection, schedule: Q04DX003 (ip), vehicle: saline) 95 % of control.

Turning to `CC(C)N(N=O)C(C)C`, the T/C reads like this: under setting [16], 104 % of control; under setting [17], 104 % of control; under setting [18], 102 % of control; under setting [19], 98 % of control.

With `CCOC(=O)c1c(C)[nH]c(-c2ccccc2)c1C`, the T/C is, setting by setting: under setting [20], 109 % of control; (dose: 100.0 mg/kg/injection, schedule: Q04DX003 (ip), vehicle: Klucel (hydroxypropylcellulose) (HPC)) 102 % of control; under setting [21], 97 % of control; (dose: 200.0 mg/kg/injection, schedule: Q04DX003 (ip), vehicle: Klucel (hydroxypropylcellulose) (HPC)) 100 % of control; under setting [22], 95 % of control; (dose: 400.0 mg/kg/injection, schedule: Q04DX003 (ip), vehicle: Klucel (hydroxypropylcellulose) (HPC)) 94 % of control.

Take `CCOC(=O)C1C2OC(=O)C(C(=O)C2N=Nc2ccc(-c3ccc(N=NC4C(=O)C5C(=O)OC4C(C(=O)OCC)C5C4CC=CCC4)cc3)cc2)C1C1CC=CCC1` (configuration not stated): the T/C reads like this: (dose: 100.0 mg/kg/injection, schedule: Q01DX001 (ip), vehicle: other) 86 % of control; under setting [3], 108 % of control; under setting [4], 100 % of control; (dose: 200.0 mg/kg/injection, schedule: Q01DX001 (ip), vehicle: other) 86 % of control; under setting [5], 104 % of control; under setting [6], 100 % of control. For the same compound, the T/C under setting [7] is 102 % of control and the T/C under setting [8] was 100 % of control.

With `CCC(C)Sc1ccc(C)cc1` (configuration not stated), the T/C by setting is: (dose: 75.0 mg/kg/injection, schedule: Q01DX009 (ip), vehicle: Klucel (hydroxypropylcellulose) (HPC)) 98 % of control; (dose: 150.0 mg/kg/injection, schedule: Q01DX009 (ip), vehicle: Klucel (hydroxypropylcellulose) (HPC)) 102 % of control; (dose: 300.0 mg/kg/injection, schedule: Q01DX009 (ip), vehicle: Klucel (hydroxypropylcellulose) (HPC)) 93 % of control.

With `NC(=S)N/N=C/c1cc(-c2cccc(N)c2)ccn1`, the T/C under setting [23] is 112 % of control; the T/C under setting [24] was 114 % of control; the T/C (dose: 25.0 mg/kg/injection, schedule: Q01DX009 (ip), vehicle: saline with Tween-80) was 114 % of control; the T/C under setting [25] is 111 % of control; the T/C under setting [3] was 114 % of control.

Consider `CC1=CC(=O)NC1=O`, for which the T/C reads like this: (dose: 25.0 mg/kg/injection, schedule: Q04DX003 (ip), vehicle: saline) 103 % of control; (dose: 50.0 mg/kg/injection, schedule: Q04DX003 (ip), vehicle: saline) 98 % of control; under setting [13], 97 % of control.

Consider `CC1c2[nH]c3ccccc3c2CC1C(=O)O` (configuration not stated), for which the T/C runs as follows: (dose: 100.0 mg/kg/injection, schedule: Q04DX002 (ip), vehicle: saline with Tween-80) 97 % of control; (dose: 200.0 mg/kg/injection, schedule: Q04DX002 (ip), vehicle: saline with Tween-80) 91 % of control; (dose: 400.0 mg/kg/injection, schedule: Q04DX002 (ip), vehicle: saline with Tween-80) 100 % of control.

In the case of `Nc1nc(NCCCc2ccccc2)c([N+](=O)[O-])c(=O)[nH]1`, the T/C was 93 % of control under setting [3] and 97 % of control under setting [5].

On to `O=C1C(=O)N(CN2CCCCC2)c2ccccc21`, for which the T/C by setting is: under setting [3], 98 % of control; under setting [4], 109 % of control; under setting [5], 113 % of control; under setting [6], 109 % of control; under setting [7], 104 % of control; under setting [8], 108 % of control.

`O=C(Nc1ccccc1Cl)Oc1ccc(-c2ccccc2)cc1`: the T/C is, setting by setting: under setting [1], 95 % of control; under setting [2], 95 % of control; (dose: 400.0 mg/kg/injection, schedule: Q04DX002 (ip), vehicle: Klucel (hydroxypropylcellulose) (HPC)) 106 % of control.

Turning to `Cc1cc(N(CCCl)CCCl)ccc1C=Nc1cc(Br)cc(Br)c1`, the T/C was 101 % of control under setting [9], 110 % of control under setting [10] and 108 % of control under setting [11].

Take `ClC1OCCOC1Cl` (configuration not stated): the T/C by setting is: (dose: 50.0 mg/kg/injection, schedule: Q01DX009 (ip), vehicle: saline) 102 % of control; under setting [12], 91 % of control; under setting [13], 92 % of control; under setting [14], 100 % of control.

Regarding `COc1cc2c(C)cc(=O)oc2cc1O`, the T/C is, setting by setting: under setting [9], 98 % of control; under setting [11], 93 % of control.

As to `O=C1Cc2ccccc2O1`, the T/C reads like this: under setting [25], 101 % of control; under setting [3], 96 % of control.

As for `CCCCC(=O)OCC(=O)[C@]1(O)Cc2c(O)c3c(c(O)c2[C@@H](OC2CC(NC(=O)C(F)(F)F)C(O)C(C)O2)C1)C(=O)c1c(OC)cccc1C3=O` (some centres not stated), the T/C was 108 % of control and 112 % of control (dose: 7.5 mg/kg/injection, schedule: Q01DX004 (ip), vehicle: saline with Tween-80); 117 % of control and 119 % of control and 120 % of control (dose: 10.0 mg/kg/injection, schedule: Q01DX004 (ip), vehicle: saline with Tween-80); 166 % of control (dose: 30.0 mg/kg/injection, schedule: Q01DX004 (ip), vehicle: saline with Tween-80); 164 % of control and 375 % of control (dose: 40.0 mg/kg/injection, schedule: Q01DX004 (ip), vehicle: other); 372 % of control and 470 % of control (dose: 50.0 mg/kg/injection, schedule: Q01DX004 (ip), vehicle: other); 177 % of control and 441 % of control (dose: 60.0 mg/kg/injection, schedule: Q01DX004 (ip), vehicle: other).

`Cc1cccc(Cl)c1NC(=S)NCc1ccco1`: the T/C runs as follows: under setting [20], 98 % of control; under setting [21], 98 % of control; under setting [22], 102 % of control.

For the compound `CN=C(NO)c1ccccc1C`, the T/C is 100 % of control under setting [9] and 97 % of control under setting [10].

In the case of `COc1ccc(S(=O)(=O)N/N=C/C(=O)O)cc1`, the T/C under setting [23] is 109 % of control and the T/C under setting [24] is 117 % of control.

`CC(=O)Nc1ccc(/C=N\NC(=O)CCCC(=O)N/N=C/c2ccc(NC(C)=O)cc2)cc1`: the T/C was 104 % of control under setting [16]; 96 % of control under setting [17]; 91 % of control under setting [12]; 92 % of control under setting [18]; 98 % of control under setting [19]; 88 % of control under setting [15].
